Results as given in patent US20050261332A1, “Sulfonamides and uses thereof” (priority 2004, published 2005).

target: T1, GHS-R (Homo sapiens, UniProt Q92847); experiment: GHS-R competition binding assay (Ki of GHS-R antagonizing compounds)
T1 construct: expressed in transfected cells; host or cells: COS-7 cells
Outline: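 COS-7 cells expressing GHS-R (1×10^5 cells/well) competed against 25 pM ^125I-ghrelin for 3 hours at 4° C in 50 mM HEPES pH 7.4 with 1 mM CaCl2, 5 mM MgCl2, 0.1% BSA, bacitracin. Nonspecific binding with […]; bound radioactivity counted after washing and lysis. Ki=IC50/(1+L/Kd).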

T1 sequence (Q92847 whole entry, species assumed): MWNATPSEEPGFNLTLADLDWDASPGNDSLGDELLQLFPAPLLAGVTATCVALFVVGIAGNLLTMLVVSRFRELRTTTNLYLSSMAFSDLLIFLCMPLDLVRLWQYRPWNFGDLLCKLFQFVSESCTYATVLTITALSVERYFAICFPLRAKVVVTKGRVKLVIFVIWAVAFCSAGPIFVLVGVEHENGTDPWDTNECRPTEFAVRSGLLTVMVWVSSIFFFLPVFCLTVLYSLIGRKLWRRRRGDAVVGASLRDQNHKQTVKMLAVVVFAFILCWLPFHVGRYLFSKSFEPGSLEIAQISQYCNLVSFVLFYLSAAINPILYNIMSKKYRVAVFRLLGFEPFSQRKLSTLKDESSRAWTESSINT

Row | Molecule | Ki
1 | NC(=O)c1ccccc1-c1ccc(CNC(=O)[C@@H](COCc2ccccc2)NS(=O)(=O)CCCCl)cc1 [Compound 153, (R)-4′-{[3-Benzyloxy-2-(3-chloro-propane-1-sulfonylamino)-propionylamino]-methyl}-biphenyl-2-carboxylic acid amide] | > 1 µM
2 | CN1CCN(CCS(=O)(=O)N[C@H](COCc2ccccc2)C(=O)N2CCC3(CC2)CN(S(C)(=O)=O)c2ccccc23)CC1 [Compound 129, (R)-N-(3-(benzyloxy)-1-(1-(methylsulfonyl)spiro[indoline-3,4′-piperidine]-1′-yl)-1-oxopropan-2-yl)-2-(4-methylpiperazin-1-yl)ethanesulfonamide] | > 1 µM
3 | CS(=O)(=O)N1CC2(CCN(C(=O)[C@@H](COCc3ccccc3)NS(=O)(=O)CCN3C4CCCC3CC4)CC2)c2ccccc21 [Compound 144, N-((R)-3-(benzyloxy)-1-(1-(methylsulfonyl)spiro[indoline-3,4′-piperidine]-1′-yl)-1-oxopropan-2-yl)-2-(8-azabicyclo[3.2.1]octan-8-yl)ethanesulfonamide] | 0.1 to 1 µM
4 | CN1C2CCC1CC(S(=O)(=O)N[C@H](COCc1ccccc1)C(=O)N1CCC3(CC1)CN(S(C)(=O)=O)c1ccccc13)C2 (stereo partly drawn) [Compound 145, N-((R)-3-(benzyloxy)-1-(1-(methylsulfonyl)spiro[indoline-3,4′-piperidine]-1′-yl)-1-oxopropan-2-yl)-8-methyl-8-azabicyclo[3.2.1]octane-3-sulfonamide] | > 1 µM

The next lines start with the values.

Row | Ki | Molecule
5 | 0.1 to 1 µM | CCN(CC)CCCS(=O)(=O)N[C@H](COCc1ccccc1)C(=O)c1ccc(-c2ccccc2COC(=O)NC)cc1 [Compound 219, (R)-Methyl-carbamic acid 4′-[(R)-3-benzyloxy-2-(3-diethylamino-propane-1-sulfonylamino)-propionyl]-biphenyl-2-ylmethyl ester]
6 | < 0.1 µM | CCN(CC)CCCS(=O)(=O)N[C@H](CCc1ccccc1)C(=O)c1ccc(-c2ccccc2COC(=O)NC)cc1 [Compound 173, (R)-(4′-(2-(3-(diethylamino)propylsulfonamido)-4-phenylbutanoyl)biphenyl-2-yl)methyl methylcarbamate]
7 | < 0.1 µM | CCN(CC)CCCS(=O)(=O)N[C@H](CCc1ccccc1)C(=O)NCc1ccc(-c2ccccc2CNC(=O)NCCO)cc1 [Compound 188, (R)-2-(3-(diethylamino)propylsulfonamido)-N-((2′-((3-(2-hydroxyethyl)ureido)methyl)biphenyl-4-yl)methyl)-4-phenylbutanamide]
8 | < 0.1 µM | CCN(CC)CCCS(=O)(=O)N[C@H](CCc1ccccc1)C(=O)NCc1ccc(-c2ccccc2COC(=O)NC)cc1 [Compound 208, (R)-Methyl-carbamic acid 4′-{[2-(3-diethylamino-propane-1-sulfonylamino)-4-phenyl-butyrylamino]-methyl}-biphenyl-2-ylmethyl ester]
9 | < 0.1 µM | CCN(CC)CCCS(=O)(=O)N[C@H](CCc1ccccc1)C(=O)c1ccc(-c2ccccc2CO)cc1 [Compound 168, (R)-3-(diethylamino)-N-(1-(2′-(hydroxymethyl)biphenyl-4-yl)-1-oxo-4-phenylbutan-2-yl)propane-1-sulfonamide]
10 | < 0.1 µM | CCN(CC)CCS(=O)(=O)N[C@@H](COCc1ccccc1)C(=O)N1CCC2(CC1)CN(S(C)(=O)=O)c1ccccc12 [Compound 199, (S)-N-(3-(benzyloxy)-1-(1-(methylsulfonyl)spiro[indoline-3,4′-piperidine]-1′-yl)-1-oxopropan-2-yl)-2-(diethylamino)ethanesulfonamide]
11 | < 0.1 µM | CCN(CC)CCCS(=O)(=O)N[C@H](COCc1ccccc1)C(=O)N1CCC2(C=Cc3ccccc32)CC1 [Compound 165, (R)-N-(3-(benzyloxy)-1-oxo-1-(spiro[indene-1,4′-piperidine]-1′-yl)propan-2-yl)-3-(diethylamino)propane-1-sulfonamide]

system: mice; experiment: fast refeed (fast-refeeding) assay in mice; type: in vivo
Method: In vivo assays. Exemplary in vivo assays include the fast-refeeding assay described in Example 1 and as follows.
Food is removed at 6 pm for an overnight (˜16 hour) fast. Beginning at 10 am on the next morning, mice are administered with either vehicle (e.g., saline+acetic acid, pH=5) or the compound of interest. Mice are then returned to their home cages and pre-weighed food (approximately 90 grams) is immediately returned to the food hoppers in each cage. The weight of the food remaining in the food hoppers is measured at 30 minutes, 1 hour, 2 hours, and 4 hours post compound/vehicle administration. Final body weights are then recorded for the mice.

Row | Molecule | feeding activity of mice in the fast refeed assay
12 | substance P: substance P; found to modulate GHS-R activity and to alter feeding activity of mice | alters feeding activity
